Measured values as given in US12077503B2, “Substituted cyclic amides and their use as herbicides” (FMC CORPORATION, priority 2015, dated 2024).

Assays:
Type in all cases: in vivo
[1] = tested on: barnyardgrass (Echinochloa crus-galli); assay: Test A preemergence; details: Echinochloa crus-galli, pre-emergence, 240 h, 0 to 100 scale where 0 is no effect and 100 is complete control, read-out: Barnyardgrass plant response rating
Procedure, shortened: (§1)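 Greenhouse, ~10 d after spray; visual injury vs untreated controls, 0 = no effect, 100 = complete control. Preemergence: directed soil spray over planted seeds. Postemergence: plants 2–10 cm, 1–2 leaf stage. Loam/sand blend. Compound in non-phytotoxic solvent with surfactant.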

[2] = tested on: ragweed (common ragweed, Ambrosia elatior); assay: Test A preemergence; details: Ambrosia artemisiifolia, pre-emergence, 240 h, 0 to 100 scale where 0 is no effect and 100 is complete control, read-out: Ragweed plant response rating
Procedure, shortened: as §1

[3] = tested on: pigweed (Amaranthus retroflexus); assay: Test A preemergence; details: Amaranthus retroflexus, pre-emergence, 240 h, 0 to 100 scale where 0 is no effect and 100 is complete control, read-out: Pigweed plant response rating
Kochia (Kochia scoparia) [4] = assay: Test A preemergence; details: Bassia scoparia, pre-emergence, 240 h, 0 to 100 scale where 0 is no effect and 100 is complete control, read-out: Kochia plant response rating
Procedure, shortened: as §1

[5] = tested on: giant foxtail (Setaria faberii); assay: Test A preemergence; details: Setaria faberi, pre-emergence, 240 h, 0 to 100 scale where 0 is no effect and 100 is complete control, read-out: Foxtail, Giant plant response rating
Procedure, shortened: as §1

[6] = tested on: ryegrass, Italian (Italian ryegrass, Lolium multiflorum); assay: Test A preemergence; details: Lolium multiflorum, pre-emergence, 240 h, 0 to 100 scale where 0 is no effect and 100 is complete control, read-out: Ryegrass, Italian plant response rating
Procedure, shortened: as §1

[7] = tested on: wheat (Triticum aestivum); assay: Test A postemergence; details: Triticum aestivum, post-emergence, 240 h, Postemergence, read-out: Wheat plant response rating (0 to 100 scale)
Procedure, shortened: as §1

[8] = tested on: Galium (catchweed bedstraw, Galium aparine); assay: Test A postemergence; details: Galium, post-emergence, 240 h, Postemergence, read-out: Galium plant response rating (0 to 100 scale)
Procedure, shortened: as §1

[9] = tested on: barnyardgrass (Echinochloa crus-galli); assay: Test A postemergence; details: Echinochloa crus-galli, post-emergence, 240 h, Postemergence
Procedure, shortened: as §1

[10] = tested on: ragweed (common ragweed, Ambrosia elatior); assay: Test A postemergence; details: Ambrosia artemisiifolia, post-emergence, 240 h, Postemergence, read-out: Ragweed plant response rating (0 to 100 scale)
Procedure, shortened: as §1

[11] = tested on: blackgrass (Alopecurus myosuroides); assay: Test A postemergence; details: Alopecurus myosuroides, post-emergence, 240 h, Postemergence, read-out: Blackgrass plant response rating (0 to 100 scale)
Procedure, shortened: as §1

[12] = tested on: pigweed (Amaranthus retroflexus); assay: Test A postemergence; details: Amaranthus retroflexus, post-emergence, 240 h, Postemergence, read-out: Pigweed plant response rating (0 to 100 scale)
Procedure, shortened: as §1

Kochia (Kochia scoparia) [13] = assay: Test A postemergence; details: Bassia scoparia, post-emergence, 240 h, Postemergence, read-out: Kochia plant response rating (0 to 100 scale)
Procedure, shortened: as §1

[14] = tested on: giant foxtail (Setaria faberii); assay: Test A postemergence; details: Setaria faberi, post-emergence, 240 h, Postemergence, read-out: Foxtail, Giant plant response rating (0 to 100 scale)
Procedure, shortened: as §1

[15] = tested on: ryegrass, Italian (Italian ryegrass, Lolium multiflorum); assay: Test A postemergence; details: Lolium multiflorum, post-emergence, 240 h, Postemergence, read-out: Ryegrass, Italian plant response rating (0 to 100 scale)
Procedure, shortened: as §1

corn (Zea mays) = assay: Test A postemergence; details: Zea mays, post-emergence, 240 h, Postemergence, read-out: Corn plant response rating (0 to 100 scale)
Procedure, shortened: as §1

[16] = tested on: barnyardgrass (Echinochloa crus-galli); assay: Test B flooded paddy test; details: Echinochloa crus-galli, 250 g ai/ha, Flood; 0 to 100 scale where 0 is no effect and 100 is complete control; read-out: Barnyardgrass plant response rating
Procedure, shortened: (§2)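 Flooding to 3 cm over soil accompanied treatment, which consisted of adding compound to the standing water around 2-leaf plants; depth was then maintained. Visual assessment versus controls followed at 13 to 15 d (scale 0–100, 0 meaning no effect).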

rice (Oryra sativa) = assay: Test B flooded paddy test; details: Oryza sativa, 250 g ai/ha, Flood; 0 to 100 scale where 0 is no effect and 100 is complete control; read-out: Rice plant response rating
Procedure, shortened: as §2

[17] = tested on: sedge, umbrella (small-flower umbrella sedge, Cyperus difformis); assay: Test B flooded paddy test; details: Cyperus difformis, 250 g ai/ha, Flood; 0 to 100 scale where 0 is no effect and 100 is complete control; read-out: Sedge, Umbrella plant response rating
Procedure, shortened: as §2

[18] = tested on: ducksalad (Heteranthera limosa); assay: Test B flooded paddy test; details: Heteranthera limosa, 250 g ai/ha, Flood; 0 to 100 scale where 0 is no effect and 100 is complete control; read-out: Ducksalad plant response rating
Procedure, shortened: as §2

[19] = 125 g ai/ha, preemergence, visual injury rating, approximately 10 d
[20] = 125 g ai/ha, visual rating about 10 d after treatment
[21] = 31 g ai/ha, 0 is no effect, 100 is complete control

CN1C[C@H](c2ccc3c(c2)C(F)(F)C(F)(F)O3)[C@@H](C(=O)Nc2cccc(F)c2F)C1=O [Compound 1271]
20%: pest or weed control at 125 g/ha [2, 19] | plant injury at 31 g/ha [7, 21] | pest or weed control at 31 g/ha [12, 21] | pest or weed control at 31 g/ha (Kochia (Kochia scoparia) [13]; [21]) | pest or weed control at 31 g/ha [14, 21]
90%: pest or weed control at 31 g/ha ([1]; 31 g ai/ha, Preemergence) | pest or weed control at 125 g/ha [1, 19] | pest or weed control at 125 g/ha [5, 19] | pest or weed control at 125 g/ha [6, 19] | pest or weed control at 250 g/ha [18]
30%: pest or weed control at 31 g/ha (Kochia (Kochia scoparia) [4]; 31 g ai/ha, Preemergence) | pest or weed control at 125 g/ha [11, 20] | pest or weed control at 125 g/ha [12, 20] | pest or weed control at 125 g/ha [15, 20] | plant injury at 31 g/ha (corn (Zea mays); [21])
0%: pest or weed control at 31 g/ha ([2]; 31 g ai/ha, Preemergence) | pest or weed control at 31 g/ha ([3]; 31 g ai/ha, Preemergence) | pest or weed control at 125 g/ha [10, 20] | pest or weed control at 31 g/ha [10, 21] | pest or weed control at 31 g/ha [11, 21] | pest or weed control at 31 g/ha [15, 21] | pest or weed control at 250 g/ha (rice (Oryra sativa)) | pest or weed control at 250 g/ha [17]
40%: pest or weed control at 125 g/ha (Kochia (Kochia scoparia) [4]; [19]) | pest or weed control at 31 g/ha ([9]; 31 g ai/ha, 0 is no effect, 100 is complete control, read-out: Barnyardgrass plant response rating (0 to 100 scale)) | pest or weed control at 125 g/ha (Kochia (Kochia scoparia) [13]; [20]) | plant injury at 125 g/ha (corn (Zea mays); [20]) | pest or weed control at 250 g/ha [16]
50%: pest or weed control at 125 g/ha [3, 19]
70%: pest or weed control at 31 g/ha ([6]; 31 g ai/ha, Preemergence)
60%: plant injury at 125 g/ha [7, 20] | pest or weed control at 125 g/ha [8, 20] | pest or weed control at 31 g/ha [8, 21] | pest or weed control at 125 g/ha ([9]; 125 g ai/ha, visual rating about 10 d after treatment, read-out: Barnyardgrass plant response rating (0 to 100 scale, 0 no effect, 100 complete control))
80%: pest or weed control at 31 g/ha ([5]; 31 g ai/ha, Preemergence) | pest or weed control at 125 g/ha [14, 20]
